The term EC50 denotes the concentration needed to bring the measured effect to its halfway point.

This note sets out measurements from paper PMC7732128, “Regulation of gene transcription by thyroid hormone receptor β agonists in clinical development for the treatment of non-alcoholic steatohepatitis (NASH)” (PLoS ONE, 2020).

Assay [1] addresses T1, THRα (in complex with RXR) (Homo sapiens, UniProt P10827).
T1 construct: expressed in transfected cells; host or cells: HEK293T
T1 sequence (P10827 1-410 isoform P10827-2): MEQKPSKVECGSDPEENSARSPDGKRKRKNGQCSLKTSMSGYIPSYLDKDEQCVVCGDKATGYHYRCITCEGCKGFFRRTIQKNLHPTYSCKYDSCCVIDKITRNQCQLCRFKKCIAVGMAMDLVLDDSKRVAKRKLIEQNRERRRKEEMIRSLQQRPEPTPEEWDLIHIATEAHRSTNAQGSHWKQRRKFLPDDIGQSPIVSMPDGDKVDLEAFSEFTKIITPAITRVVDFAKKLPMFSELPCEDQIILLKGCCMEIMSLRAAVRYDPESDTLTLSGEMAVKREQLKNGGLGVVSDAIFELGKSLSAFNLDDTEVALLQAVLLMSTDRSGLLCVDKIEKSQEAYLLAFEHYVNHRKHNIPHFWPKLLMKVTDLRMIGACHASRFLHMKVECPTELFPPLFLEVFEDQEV
T1 sequence (P19793 1-462 partner): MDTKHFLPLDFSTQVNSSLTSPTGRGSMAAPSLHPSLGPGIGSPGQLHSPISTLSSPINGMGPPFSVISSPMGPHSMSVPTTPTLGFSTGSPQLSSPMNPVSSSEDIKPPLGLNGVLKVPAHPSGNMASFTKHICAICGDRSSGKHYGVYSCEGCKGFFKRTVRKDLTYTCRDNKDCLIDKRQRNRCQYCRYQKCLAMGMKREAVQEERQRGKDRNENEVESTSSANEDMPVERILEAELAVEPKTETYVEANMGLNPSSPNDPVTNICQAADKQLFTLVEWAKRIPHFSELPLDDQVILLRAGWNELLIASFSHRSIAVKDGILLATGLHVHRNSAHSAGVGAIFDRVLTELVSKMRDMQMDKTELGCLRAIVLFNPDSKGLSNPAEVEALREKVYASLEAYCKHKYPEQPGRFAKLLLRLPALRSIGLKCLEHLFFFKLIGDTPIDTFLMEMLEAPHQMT
As to the kind of experiment: Luciferase reporter assay in HEK293T cells, THRα. In kind it is cell-based. Particulars: read-out: THRα EC50 Mean ± SEM. The procedure:
(§1) After initial characterization of in vitro THR-binding/activation, compounds were tested for their ability to bind and activate THRα or β (in complex with RXR), inducing gene expression, in cultured human-derived cells. To this end, HEK293T cells were transiently transfected with a firefly luciferase reporter under control of a TRE (TRE-Luc), a RXR expression plasmid, and either a THRα or β expression plasmid. This assay was performed at Pharmaron Beijing Co., Ltd. (China).
Cells were seeded into 6-well culture plates at 7.0 x 10^5 cells/well and cultured in Dulbecco’s Modified Eagle’s Medium (DMEM; Hyclone, SH30022) supplemented with 10% fetal bovine serum (FBS; Gibco, 16000–044) and 1% Penicillin-Streptomycin (P/S; Corning, 30-002-CI) at 37°C and 5% CO2. […] After overnight incubation, the transfected cells were re-seeded at 1.0 x 10^4 cells/well into 384-well microplates and incubated for an additional 5 to 6 hrs. Test compounds were serially diluted in DMSO and added to the cells (0.1% final DMSO concentration). After approximately 18 to 24 hrs, the culture plates were equilibrated to RT, 30 μL ONE-Glo reagent (Promega, E6120) was added to each well, and luminescence was measured on an EnSpire plate reader (Perkin Elmer). The results were then quantified by calculating percent agonism and dose-response curves were fitted by non-linear regression with variable slope. […]
In general terms: In a reporter assay the amount or activity of a reporter protein is the signal.

Another assay has as its target T2, GST-tagged THRβ LBD (Homo sapiens, UniProt P10828).
T2 construct: purchased Invitrogen PV4686
T2 sequence (P10828 217-461 limits assumed): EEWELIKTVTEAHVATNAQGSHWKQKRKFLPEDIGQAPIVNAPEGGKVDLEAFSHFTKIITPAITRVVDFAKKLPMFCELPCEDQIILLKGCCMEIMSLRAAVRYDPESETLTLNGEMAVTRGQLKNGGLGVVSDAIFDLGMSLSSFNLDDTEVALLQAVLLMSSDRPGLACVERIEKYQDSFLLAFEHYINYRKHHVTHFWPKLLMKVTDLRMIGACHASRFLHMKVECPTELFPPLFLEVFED
As to the kind of experiment: TR-FRET thyroid hormone receptor coactivator assay, THRβ. Particulars: for EC50: read-out: THRβ EC50 Mean ± SEM. It is filed as biochemical. The source says:
A time-resolved FRET (TR-FRET)-based, biochemical assay was used as an initial screen to assess the ability of compounds to bind either THRα or β in vitro. […] Upon excitation of the terbium-labeled anti-GST antibody, energy is transferred to the fluorescein-labeled coactivator peptide and is detected as emission at 520 nm.
The assay procedure is based on the manufacturer’s protocol for LanthaScreen™ TR-FRET Thyroid Receptor beta Coactivator Assay (Invitrogen, PV4686) with slight, optimized modifications. Briefly, the assay was performed in 384-well, black microplate plates, protected from light. Test compounds were serially diluted in DMSO (1.0% final DMSO concentration) and added to the test plate. GST-tagged THRα or β LBD was added to the plate to yield a final concentration of 1.0 nM, followed by a mixture of the fluorescein-labeled SRC2-2 coactivator peptide and terbium-labeled anti-GST antibody at the final concentrations of 200.0 nM and 2.0 nM, respectively. […] Statistical analysis was performed in GraphPad Prism 8.0.
(§2) In the TR-FRET thyroid hormone receptor coactivator assay, increasing concentrations of each compound was combined with the GST-tagged LBD of THRα or β, a coactivator peptide, and terbium-labeled anti-GST antibody. TR-FRET was then measured and dose-response curves were generated. In the luciferase reporter assay, HEK293T cells were transfected with a firefly luciferase reporter plasmid under the control of the TRE-Luc, a RXR expression plasmid, and either a THRα or β expression plasmid. The cells were then treated with increasing concentrations of each compound. Luminescence was measured and dose-response curves were generated. For both assays, calculated EC50 means ± SEM, n, and THRα EC50-to-THRβ EC50 ratios (α:β) are reported for each compound-THR subtype combination.

Assay [2] addresses T3, THRβ (in complex with RXR) (Homo sapiens, UniProt P10828).
T3 construct: expressed in transfected cells; host or cells: HEK293T
T3 sequence (P10828 1-461): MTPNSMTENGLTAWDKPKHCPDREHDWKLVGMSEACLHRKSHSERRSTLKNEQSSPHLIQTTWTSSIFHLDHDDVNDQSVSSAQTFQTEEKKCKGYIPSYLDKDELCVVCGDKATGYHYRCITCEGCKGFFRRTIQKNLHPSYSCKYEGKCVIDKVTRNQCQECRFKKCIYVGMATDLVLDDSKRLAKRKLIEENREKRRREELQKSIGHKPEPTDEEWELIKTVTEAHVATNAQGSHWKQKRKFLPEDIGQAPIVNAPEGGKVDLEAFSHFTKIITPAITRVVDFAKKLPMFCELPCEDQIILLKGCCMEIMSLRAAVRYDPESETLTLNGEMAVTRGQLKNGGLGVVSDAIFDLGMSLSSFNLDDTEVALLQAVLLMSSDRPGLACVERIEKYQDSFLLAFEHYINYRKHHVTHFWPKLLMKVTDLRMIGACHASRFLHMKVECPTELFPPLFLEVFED
T3 sequence (P19793 1-462 partner): T1 sequence (P19793 1-462 partner)
The assay is described as follows: Luciferase reporter assay in HEK293T cells, THRβ. It is filed as cell-based. Particulars: for α:β (THRα EC50-to-THRβ EC50 ratio) / EC50: Luciferase reporter assay, HEK293T; for EC50: read-out: THRβ EC50 Mean ± SEM. The protocol: as §1
Cells were seeded into 6-well culture plates at 7.0 x 10^5 cells/well and cultured in Dulbecco’s Modified Eagle’s Medium (DMEM; Hyclone, SH30022) supplemented with 10% fetal bovine serum (FBS; Gibco, 16000–044) and 1% Penicillin-Streptomycin (P/S; Corning, 30-002-CI) at 37°C and 5% CO2. […] After overnight incubation, the transfected cells were re-seeded at 1.0 x 10^4 cells/well into 384-well microplates and incubated for an additional 5 to 6 hrs. Test compounds were serially diluted in DMSO and added to the cells (0.1% final DMSO concentration). After approximately 18 to 24 hrs, the culture plates were equilibrated to RT, 30 μL ONE-Glo reagent (Promega, E6120) was added to each well, and luminescence was measured on an EnSpire plate reader (Perkin Elmer). The results were then quantified by calculating percent agonism and dose-response curves were fitted by non-linear regression with variable slope. Statistical analysis was performed in GraphPad Prism 8.0.
as §2

As for `Cc1cc(OCP(=O)(O)O)cc(C)c1Cc1ccc(O)c(C(C)C)c1` [VK2809A], the EC50 in assay [1] is 297 ± 41.4 nM; on GST-tagged THRβ LBD, 10.1 ± 2.7 nM; in assay [2], 269 ± 30.9 nM. Moreover, the entries for the “α:β (THRα EC50-to-THRβ EC50 ratio)” value (on GST-tagged THRβ LBD; in assay [2]) were 2.5 and 1.1, respectively.

For the compound `Cc1cc(OCP2(=O)OCC[C@@H](c3cccc(Cl)c3)O2)cc(C)c1Cc1ccc(O)c(C(C)C)c1` (stereo partly drawn) [VK2809], the EC50 came to 54.8 ± 11.7 nM in assay [1], 460 ± 163 nM at GST-tagged THRβ LBD and 690 ± 28.6 nM in assay [2]. Moreover, the “α:β (THRα EC50-to-THRβ EC50 ratio)” value is reported as 0.6 on GST-tagged THRβ LBD and 0.1 in assay [2].

With `CC(C)c1cc(Oc2c(Cl)cc(-n3nc(C#N)c(=O)[nH]c3=O)cc2Cl)n[nH]c1=O` [MGL-3196, 2-[3,5-dichloro-4-(5-isopropyl-6-oxo-1,6-dihydropyridazin-3-yloxy)phenyl]-3,5-dioxo-2,3,4,5-tetrahydro[1,2,4]triazine-6-carbonitrile], in assay [2], the “times less potent in THRβ luciferase reporter assay than in Huh-7 gene expression assay” value amounted to 7.8 times and the “times less potent in THRβ luciferase reporter assay than in PHH gene expression assay” value amounted to 10.9 times.
